Data from patent US20240382629A1, “HETEROBIVALENT AND HOMOBIVALENT AGENTS TARGETING FIBROBLAST ACTIVATION PROTEIN ALPHA AND/OR PROSTATE-SPECIFIC MEMBRANE ANTIGEN” (The Johns Hopkins University, priority 2021, published 2024).

Tests used:
DPPIV = DPPIV (Homo sapiens (Human), UniProt P27487); experiment: DPPIV inhibition assay (recombinant enzyme, H-Gly-Pro-AMC substrate); type: biochemical
Description: (§1) PSMA binding affinities of the compounds were determined using a competitive inhibition assay as previously reported. […] FAP, prolyl endopeptidase (PREP), and […] (DPPIV) inhibition assays: Recombinant enzymes (FAP, PREP, DPPIV) were purchased from R&D Systems (Minneapolis, MN). […] Z-Gly-Pro-AMC was used as a substrate for FAP and PREP. H-Gly-Pro-AMC was used as a substrate for DPPIV. The recombinant enzyme (0.4 μg/mL) was incubated with varying amounts of the test articles in the presence of the designated substrate (80 μM) for 10 min at room temperature. Fluorescence intensity was measured with 380 nm excitation and 460 nm emission using the Cytation 5 Cell Imaging Multi-Mode Reader (BioTek, Winooski, VT). IC50 and Ki values were obtained using a sigmoidal dose-response function.

FAP = FAP (Homo sapiens (Human), UniProt Q12884); experiment: FAP inhibition assay (recombinant enzyme, Z-Gly-Pro-AMC substrate); type: biochemical; details: Table 3
FAP, sequence (Q12884 whole entry): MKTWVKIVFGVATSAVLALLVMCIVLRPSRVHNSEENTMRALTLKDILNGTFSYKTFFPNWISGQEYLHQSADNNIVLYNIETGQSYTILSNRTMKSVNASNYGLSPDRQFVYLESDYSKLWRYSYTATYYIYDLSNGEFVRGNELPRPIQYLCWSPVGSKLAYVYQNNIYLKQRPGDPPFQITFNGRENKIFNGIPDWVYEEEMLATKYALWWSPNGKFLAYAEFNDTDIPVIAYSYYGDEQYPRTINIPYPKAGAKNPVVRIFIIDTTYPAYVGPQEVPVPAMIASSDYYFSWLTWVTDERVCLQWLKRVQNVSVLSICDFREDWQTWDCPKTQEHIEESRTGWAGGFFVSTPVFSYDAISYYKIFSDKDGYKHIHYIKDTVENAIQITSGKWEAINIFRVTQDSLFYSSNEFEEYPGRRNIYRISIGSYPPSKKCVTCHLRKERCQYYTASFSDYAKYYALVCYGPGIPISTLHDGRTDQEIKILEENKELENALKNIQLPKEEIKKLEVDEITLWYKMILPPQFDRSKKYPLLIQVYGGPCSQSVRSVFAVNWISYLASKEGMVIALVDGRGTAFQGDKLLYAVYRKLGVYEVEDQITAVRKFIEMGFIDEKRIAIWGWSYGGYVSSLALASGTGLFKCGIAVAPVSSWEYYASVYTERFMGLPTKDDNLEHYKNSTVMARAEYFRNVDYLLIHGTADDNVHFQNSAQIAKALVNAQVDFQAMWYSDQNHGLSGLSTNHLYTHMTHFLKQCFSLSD
Description: as §1

DPPIV, sequence (P27487 whole entry): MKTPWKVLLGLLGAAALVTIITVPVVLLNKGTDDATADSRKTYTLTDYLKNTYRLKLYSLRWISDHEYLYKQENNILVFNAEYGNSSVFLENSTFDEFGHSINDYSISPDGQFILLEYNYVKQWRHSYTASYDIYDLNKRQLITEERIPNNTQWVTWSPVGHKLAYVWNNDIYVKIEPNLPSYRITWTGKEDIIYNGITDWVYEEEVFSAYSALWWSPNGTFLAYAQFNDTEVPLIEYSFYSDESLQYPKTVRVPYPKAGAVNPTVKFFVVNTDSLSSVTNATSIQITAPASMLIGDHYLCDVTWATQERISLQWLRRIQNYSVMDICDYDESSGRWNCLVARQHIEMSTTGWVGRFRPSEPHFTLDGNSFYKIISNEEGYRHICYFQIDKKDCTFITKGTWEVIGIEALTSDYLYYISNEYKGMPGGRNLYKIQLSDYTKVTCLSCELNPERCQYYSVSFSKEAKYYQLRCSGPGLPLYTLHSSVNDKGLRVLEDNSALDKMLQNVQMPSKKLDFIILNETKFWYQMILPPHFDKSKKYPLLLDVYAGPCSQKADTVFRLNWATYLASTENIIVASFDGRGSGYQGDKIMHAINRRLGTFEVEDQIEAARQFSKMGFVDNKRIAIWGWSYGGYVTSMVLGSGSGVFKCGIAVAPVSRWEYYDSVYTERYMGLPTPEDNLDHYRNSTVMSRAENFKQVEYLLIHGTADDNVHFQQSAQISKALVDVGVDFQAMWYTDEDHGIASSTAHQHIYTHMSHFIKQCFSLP

Ki (DPPIV)	IC50 (DPPIV; Table 3, read-out: DPPIV IC50)	IC50 (FAP)	Ki (FAP; read-out: FAP Ki)	Structure (SMILES)
800 nM				N#C[C@@H]1CC(F)(F)CN1C(=O)CNC(=O)c1ccnc2ccc(OCCCN3CCN(C(=O)CN4CCN(CC(=O)O)CCN(CC(=O)O)CCN(CC(=O)O)CC4)CC3)cc12 [FAPI-04, reference compound]
	> 20000 nM	0.119 nM	0.0239 nM	N#C[C@@H]1CCCN1C(=O)CNC(=O)c1ccnc2ccc(F)cc12 [JHU1220450]
